The text below walks through data of patent publication US10744127B2, “MDR-reversing 8-hydroxy-quinoline derivatives” (MAGYAR TUDOMÁNYOS AKADÉMIA TERMÉSZETTUDOMÁNYI KUTATÓKÖZPONT, priority 2016, dated 2020).

Like-named read-outs stand apart in the source and are kept apart here.

For series [1], the system named is MES-SA and multidrug-resistant MES-SA/Dx5 cell line. Description: Selective toxicity (ratio of IC50 in MES-SA to IC50 in MES-SA/Dx5) and activity index. The format is cell-based, human. The text has this: Compounds having P-gp potentiated MDR-selective activity can be characterized by their inhibitory concentration (IC) with regard to a specific cancer cell line. Usually the IC value is given at a certain percentage ratio of non-inhibited molecules or surviving cells. For example an IC20 value of a compound on a cell line means that at this inhibitory concentration of the compound 80% of the cells are killed whereas 20% of the cells are still viable. A further characteristic of MDR-selective drugs is the selectivity ratio (SR), which is the ratio of the IC value measured in a non-multidrug resistant cell line to (i.e. divided by) the IC value measured in the corresponding transformed, multidrug-resistant cell line. The inverse value, the resistance ratio (RR) is calculated as the ratio of a compound's IC value against a multidrug resistant cell line divided by the parallel IC value of the same compound against a control non-multidrug resistant cell line. The Activity Index (AI) is calculated here as the ratio of the compound's selectivity ratio (SR) and the compound's IC50 value against the resistant cell. The AI reflects the level of simultaneous toxicity and selectivity towards multidrug-resistant cancer cells.
(§1) The human uterine sarcoma cell line MES-SA and its doxorubicin resistant counterpart MES-SA/Dx5 were obtained from ATCC (MES-SA: No. CRL-1976™, MES-SA-Dx5: No. CRL-1977™). MES-SA/Dx5 cells express high levels of P-gp, and therefore are multidrug resistant (MDR). Cells were cultured in DMEM supplemented with 10% FBS, 5 mmol/L glutamine and 50 unit/mL penicillin and streptomycin (Life Technologies).
(§2) Cell survival was measured by the PrestoBlue® Cell Viability Reagent (Life Technologies, USA). Cells were seeded in 100 μl medium at a density of 5000 cells/well in 96-well plates; the serially diluted drug was added the following day. Cells were then incubated for 72 hours at 37° C. in 5% CO2; the drug containing medium was removed, and the PrestoBlue® reagent was added according to the manufacturer's instructions. Fluorescence of the cells was measured by a Perkin Elmer EnSpire multimode plate reader or Perkin Elmer Victor X3 microplate reader. Data were background corrected and normalized to untreated cells. Curves were fitted with the help of Prism software using the sigmoidal dose-response model. Curve fit statistics were used to determine IC50 values. Differences between the IC50 values of the respective cell lines were analyzed by two-sided […] unpaired Student's t test and results were considered statistically significant at a P value of <0.05 (*) or 0.01 (**).
Selectivity towards multidrug-resistant cells is expressed as the ratio of the IC50 value measured in the parental MES-SA and multidrug-resistant MES-SA/Dx5 cell line (Selectivity Ratio, SR).
A novel characteristic of the compounds presented in this invention is that they exert their selective cytotoxicity at low IC50 values. Simultaneous toxicity and selectivity towards multidrug-resistant cancer cells is reflected by the Activity Index (AI) of the compounds, which is the ratio of the selectivity ratio (SR) and the IC50 value on the resistant cell line.

Series [2] has as its system A431 and A431-B1 cell lines. Description: Selective toxicity in A431 and A431-B1 cell lines. The series is classed as cell-based, human. Conditions: A431 versus P-gp-transfected A431-B1. The procedure: as §2
(§3) Data on selective toxicity (expressed as Selectivity Ratio, SR) in two MDR models engineered by retroviral transfection of P-glycoprotein (A431/A431-B1 and MDCK II/MDCK II B1 cell lines) are presented in Table 3 and Table 4.
(§4) A431 is a human epidermoid carcinoma cell line. Its derivative, the A431-B1 cell line expresses P-gp due to retroviral transfection of the mdr1 gene Türk, D. et al (Türk, D. et al., 2009). MDCK II is a canine kidney cell line. MDCK II B1 was created by inserting the mdr1 gene with transposons [Pape V F S et al. 2015] Both cell express P-gp stably, and show a stable MDR phenotype. Culture conditions were identical as in the case of MES-SA cells.

Series [3] relates to MES-SA/Dx5 cell line. Description: Cytotoxicity, PrestoBlue cell viability assay, MES-SA/Dx5. The settings on record: Homo sapiens. The series is classed as cell-based. As to the method: as §1, §2
The subject of series [4] is P-gp-expressing MES-SA/Dx5 cells. Description: P-gp switch assay (Calcein AM). The format is cell-based, human. Conditions: MES-SA/Dx5, single dose at IC20 (killing 80% of the cells), surviving population at 80% confluence, Calcein AM. As to the method:
One million P-gp-expressing MES-SA/Dx5 cells were plated in a T25 cell culture flask. After 24 hours the compound of interest was added directly to the cells at a concentration corresponding to the IC20 value (killing 80% of the cells). After 5 days the culture media was removed, the cells were washed with PBS and the culture medium was exchanged. Cells were monitored daily and the recovery was recorded. The medium was changed every 5 days until the confluence of the cells reached 80%. At 80% confluence the cells were removed by gentle trypsinization, counted by an automated cell counter and stained with Calcein AM, a cellular dye able to detect the function of P-gp (Homolya 1993). P-gp-positivity was evaluated based on the ability of P-gp-expressing cells to extrude Calcein AM.

Series [5] deals with MES-SA and MES-SA/Dx5 cells. Description: Selective toxicity in the presence of the P-gp inhibitor tariquidar. The settings on record: selectivity ratio in the presence of tariquidar (1 μM). The format is cell-based, human. The procedure: In the presence of tariquidar (an inhibitor of P-gp function), the toxicity of the compounds selectively diminishes in multidrug-resistant MES-SA/Dx5 cells, while the toxicity is unchanged against parental MESSA cells, which is reflected by a decrease in the selectivity ratio (SR (TQ)).
To investigate the contribution of P-glycoprotein to the cytotoxic effect of a compound, cell survival was measured in the presence of the P-glycoprotein inhibitor tariquidar (1 μM). Tariquidar (CAS 206873-63-4) can be obtained e.g. from Selleck, Houston, USA.

Series [6] deals with MES-SA cell line. Description: Cytotoxicity, PrestoBlue cell viability assay, parental MES-SA. The series is classed as cell-based. The settings on record: Homo sapiens; parental MES-SA cell line (Table 2a). As to the method: as §1, §2
In series [7] the test system is MDCK II and MDCK II B1 cell lines. Description: Selective toxicity towards MDCK II and MDCK II B1 cell lines. The format is cell-based, canine. The settings on record: MDCK II versus MDCK II B1. The procedure: as §2, §3, §4
Where [8] appears, read: MES-SA/Dx5 (Table 2b), read-out: IC50 (μM) Dx5.
The mark [9] stands for this setting: Mes-sa/Dx5 cell line, PrestoBlue assay, 72 hours (Table 1), read-out: IC50.
[10] abbreviates: MES-SA / MES-SA/Dx5, without tariquidar (Table 5).
The mark [11] stands for this setting: multidrug-resistant MES-SA/Dx5 cell line (Table 2a), read-out: IC50 (nM) in MES-SA/Dx5 cell line.

Usually melting point stands for the temperature of the solid-liquid transition. Take `C/C(=N\Nc1ccc2ccc(CN3CCCCC3)c(O)c2n1)c1ccccc1O` [Example 4, (E/Z)-2-(2-(1-(2-Hydroxyphenyl)ethylidene)hydrazinyl)-7-(piperidin-1-ylmethyl)quinolin-8-ol]: the melting point lay in the range of 184 to 187 °C. In series [1] (MES-SA / MES-SA/Dx5 (Table 2b)), the SR is given as 5.9. In series [2], the “Selectivity Ratio (SR) (A431/A431-B1)” value came out at 11.7. In series [3] (setting [8]), the IC50 is 0.16 µM. In addition, the IC50 in series [3] (setting [9]) turned out to be 0.16 µM.

Turning to `Oc1c(C2NCCc3ccccc32)cc(Br)c2cccnc12` (stereo not drawn) [Example 14, 5-Bromo-7-(1,2,3,4-tetrahydroisoquinolin-1-yl)quinolin-8-ol], in series [1] (MES-SA / MES-SA/Dx5 (Table 2b)), the SR was 7.8. The “Selectivity Ratio (SR) (A431/A431-B1)” value in series [2] amounted to 13.7. Also, the IC50 in series [3] (setting [8]) and in series [3] (setting [9]) was 0.13 µM throughout.

Regarding `COc1ccc(CNCc2cc(Br)c3cccnc3c2O)cc1` [Example 10, 5-Bromo-7-(((4-methoxybenzyl)amino)methyl)quinolin-8-ol], the melting point was 129 to 132 °C. In series [2], the “Selectivity Ratio (SR) (A431/A431-B1)” value amounted to 11.2.

The molecule `C/C(=N\Nc1ccc2cccc(O)c2n1)c1ccccc1O` [Example 1, (E/Z)-2-(2-(1-(2-Hydroxyphenyl)ethylidene)hydrazinyl)quinolin-8-ol] yielded a melting point of 225 to 228 °C.

Consider `Oc1c(C2NCCc3sccc32)ccc2cccnc12` (stereo not drawn) [Example 18, 7-(4,5,6,7-Tetrahydrothieno[3,2-c]pyridin-4-yl)quinolin-8-ol], for which the IC50 in series [3] (setting [9]) amounted to 0.157 µM. Further, in series [4], the “Fraction of P-gp-negative cells (P3) in the population” value (“Fraction of P-gp-negative cells (P3)” below) is recorded as 80.6% and the “Fraction of P-gp-positive cells (P4) in the population” value (“Fraction of P-gp-positive cells (P4)” for short) was 19.40%.

`Oc1c(CN2CCCCC2)ccc2ccc(N/N=C/c3ccccn3)nc12` [Example 5, (E/Z)-7-(Piperidin-1-ylmethyl)-2-(2-(pyridine-2-ylmethylene)hydrazinyl)quinolin-8-ol] showed a melting point of 248 to 250 °C. In addition, in series [1] (setting [10]), the SR came out at 20.9. The IC50 in series [3] (setting [11]) was found to be 1.97 µM. Besides, the “SR (TQ)” value in series [5] stood at 1.2. Further, in series [4], the “Fraction of P-gp-negative cells (P3)” value is listed as 67.6% and the “Fraction of P-gp-positive cells (P4)” value is listed as 32.40%. The IC50 in series [6] worked out at 40500 nM.

Turning to `Oc1c(CNC2CCCCC2)cc(Cl)c2cccnc12` [Example 6, 5-Chloro-7-((cyclohexylamino)methyl)quinolin-8-ol], the melting point lay within 123 to 125 °C. In addition, the “Selectivity Ratio (SR) (A431/A431-B1)” value in series [2] worked out at 11.5.

As for `COc1ccc(CNCc2cc(Cl)c3cccnc3c2O)cc1` [Example 7, 5-Chloro-7-(((4-methoxybenzyl)amino)methyl)quinolin-8-ol], the melting point is 125 to 127 °C. Besides, in series [1] (setting [10]), the SR is reported as 13.4. For the same molecule, the “Selectivity Ratio (SR) (A431/A431-B1)” value in series [2] was determined as 12.6. In series [5], the “SR (TQ)” value worked out at 1.3.

As for `O=C1NC2CCCCC2NC1c1cc(Cl)c2cccnc2c1O` (mixture of isomers) [Example 22, (3R,4aS,8aS)-3-(5-Chloro-8-hydroxyquinolin-7-yl)octahydroquinoxalin-2(1H)-one and (3S,4aS,8aS)-3-(5-chloro-8-hydroxyquinolin-7-yl)octahydroquinoxalin-2(1H)-one], the “Selectivity Ratio (SR) (A431/A431-B1)” value in series [2] worked out at 18.8.

`COc1cc2c(cc1OC)C(c1cc(Cl)c3cccnc3c1O)NCC2` (stereo not drawn) [Example 16, 5-Chloro-7-(6,7-dimethoxy-1,2,3,4-tetrahydroisoquinolin-1-yl)quinolin-8-ol]: the SR in series [1] (setting [10]) worked out at 10.3. The “Selectivity Ratio (SR) (A431/A431-B1)” value in series [2] was 24.7. Further, the “SR (TQ)” value in series [5] amounted to 0.9.

Consider `Cl.Oc1c(CNCc2ccccc2F)cc(Cl)c2cccnc12` [Example 12, 5-Chloro-7-({[(2-fluorophenyl)methyl]amino}methyl)quinolin-8-ol Hydrochloride], for which the “Selectivity Ratio (SR) (MDCK II/MDCK II B1)” value in series [7] stood at 8.3.

As to `Oc1c(C2NCCc3ccccc32)cc(Cl)c2cccnc12` (stereo not drawn) [Example 13, 5-Chloro-7-(1,2,3,4-tetrahydroisoquinolin-1-yl)quinolin-8-ol], the IC50 in series [3] (setting [9]) came to 0.127 µM. For the same molecule, in series [4], the “Fraction of P-gp-negative cells (P3)” value is 88.00% and the “Fraction of P-gp-positive cells (P4)” value is 12.00%.

In turn, `COc1ccccc1CNCc1cc(Br)c2cccnc2c1O` [Example 8, 5-Bromo-7-(((2-methoxybenzyl)amino)methyl)quinolin-8-ol] gave a melting point of 135 to 137 °C. Moreover, the SR in series [1] (MES-SA / MES-SA/Dx5 (Table 2b)) came to 13.5. In series [3] (setting [8]), the IC50 came to 0.16 µM. For the same molecule, the IC50 in series [3] (setting [9]) stood at 0.161 µM.

Consider `O=[N+]([O-])c1cc(C2NCCc3ccccc32)c(O)c2ncccc12` (stereo not drawn) [Example 15, 5-Nitro-7-(1,2,3,4-tetrahydroisoquinolin-1-yl)quinolin-8-ol], for which the SR in series [1] (MES-SA / MES-SA/Dx5 (Table 2b)) and in series [1] (setting [10]) was 23.8 in each case. The IC50 is 0.59 µM in series [3] (setting [8]), 0.594 µM in series [3] (setting [11]) and 12400 nM in series [6]. Besides, the “SR (TQ)” value in series [5] is 1.4. The “Fraction of P-gp-negative cells (P3)” value in series [4] was 67.2%. Further, in series [4], the “Fraction of P-gp-positive cells (P4)” value is listed as 32.80%.

For `COc1ccc(CNCc2cc([N+](=O)[O-])c3cccnc3c2O)c(OC)c1` [Example 28, 7-(((2,4-Dimethoxybenzyl)amino)methyl)-5-nitroquinolin-8-ol], the melting point is 206 to 209 °C. For the same molecule, in series [1] (MES-SA / MES-SA/Dx5 (Table 2b)), the SR is on record as 19.7. The SR in series [1] (setting [10]) is 19.7. Besides, in series [3] (setting [8]), the IC50 came out at 0.44 µM. For the same molecule, the IC50 in series [3] (setting [11]) was 0.442 µM. In series [5], the “SR (TQ)” value came to 1.6. For the same molecule, the IC50 in series [6] came to 8650 nM.

With `O=[N+]([O-])c1cc(C2NCCc3sccc32)c(O)c2ncccc12` (stereo not drawn) [Example 19, 5-Nitro-7-(4,5,6,7-tetrahydrothieno[3,2-c]pyridin-4-yl)quinolin-8-ol], the “Selectivity Ratio (SR) (A431/A431-B1)” value in series [2] amounted to 24.7.

The molecule `C/C(=N\Nc1ccc2cccc(O)c2n1)c1ccccn1` [Example 2, (E/Z)-2-(2-(1-(Pyridine-2-yl)ethylidene)hydrazinyl)quinolin-8-ol] returned a melting point of 213 to 214 °C.
